From ChEMBL document CHEMBL6134895, “Strategic Design and Optimization of Umifenovir Analogues: Balancing Antiviral Efficacy and hERG Toxicity against SARS-CoV-2” (J Med Chem, 2025)
Calls of active or inactive are those of the source. The calls are words filed in the database; no cut-off is given here.

Legend:
[1] = Stability in human plasma assessed as compound remaining at 2 uM measured after 60 mins by LC-MS/MS analysis; type: ADME, cell-free; settings: read-out: Stability
Vero C1008 [2] = assay: (§1) Cytotoxicity against African green monkey Vero E6 cells assessed as cell viability at 5 uM incubated for 48 hrs by MTT assay; type: toxicity, cell-based; settings: chlorocebus sabaeus, vero c1008, 48 h, 5 µM
[3] = Lipophilicity, LogD of compound in sodium phosphate buffer/n-octanol incubated for 3 hrs by LC-UV analysis; type: physicochemical
SARS-CoV-2 [4] = assay: (§2) Antiviral activity against SARS CoV-2 Wuhan infected in African green monkey Vero E6 cells assessed as inhibition of viral replication pretreated for 15 mins followed by compound removal and induction of viral infection for 1 hr and subsequent removal of inoculum and further addition of media containing compound measured after 24 hrs by cell-based ELISA; type: functional, organism-based; settings: for IC50: Severe acute respiratory syndrome coronavirus 2, Wuhan, Vero C1008
[5] = Microsomal stability in mouse liver microsomes assessed as half life at 100 uM preincubated for 15 mins followed by NADPH addition measured up to 60 mins by LC-MS/MS analysis; type: ADME, Microsome; settings: time < 75 min
[6] = Stability in human plasma assessed as half life at 2 uM measured up to 120 mins by LC-MS/MS analysis; type: ADME, cell-free
[7] = Microsomal stability in mouse liver microsomes assessed as intrinsic clearance measured per mg protein at 100 uM preincubated for 15 mins followed by NADPH addition measured up to 60 mins by LC-MS/MS analysis; type: ADME, Microsome; settings: time < 75 min, read-out: CLH
[8] = Microsomal stability in human liver microsomes assessed as intrinsic clearance measured per mg protein at 100 uM preincubated for 15 mins followed by NADPH addition measured up to 60 mins by LC-MS/MS analysis; type: ADME, Microsome; settings: time < 75 min, read-out: CLH
[9] = Microsomal stability in human liver microsomes assessed as half life at 100 uM preincubated for 15 mins followed by NADPH addition measured up to 60 mins by LC-MS/MS analysis; type: ADME, Microsome; settings: time < 75 min
[10] = Stability in mouse plasma assessed as half life at 2 uM measured up to 120 mins by LC-MS/MS analysis; type: ADME, cell-free
[11] = Microsomal stability in human liver microsomes assessed as compound remaining at 100 uM preincubated for 15 mins followed by NADPH addition measured after 60 mins by LC-MS/MS analysis; type: ADME, Microsome; settings: time 75 min, read-out: Stability
[12] = Microsomal stability in mouse liver microsomes assessed as compound remaining at 100 uM preincubated for 15 mins followed by NADPH addition measured after 60 mins by LC-MS/MS analysis; type: ADME, Microsome; settings: time 75 min, read-out: Stability
[13] = Stability in mouse plasma assessed as compound remaining at 2 uM measured after 60 mins by LC-MS/MS analysis; type: ADME, cell-free; settings: read-out: Stability
[14] = molecular target: Voltage-gated inwardly rectifying potassium channel KCNH2 (Homo sapiens, UniProt Q12809); assay: Inhibition of hERG extracted from membrane (unknown origin) incubated for 4 hrs by fluorescence polarization assay; type: toxicity, cell membranes
Voltage-gated inwardly rectifying potassium channel KCNH2, sequence (Q12809 whole entry): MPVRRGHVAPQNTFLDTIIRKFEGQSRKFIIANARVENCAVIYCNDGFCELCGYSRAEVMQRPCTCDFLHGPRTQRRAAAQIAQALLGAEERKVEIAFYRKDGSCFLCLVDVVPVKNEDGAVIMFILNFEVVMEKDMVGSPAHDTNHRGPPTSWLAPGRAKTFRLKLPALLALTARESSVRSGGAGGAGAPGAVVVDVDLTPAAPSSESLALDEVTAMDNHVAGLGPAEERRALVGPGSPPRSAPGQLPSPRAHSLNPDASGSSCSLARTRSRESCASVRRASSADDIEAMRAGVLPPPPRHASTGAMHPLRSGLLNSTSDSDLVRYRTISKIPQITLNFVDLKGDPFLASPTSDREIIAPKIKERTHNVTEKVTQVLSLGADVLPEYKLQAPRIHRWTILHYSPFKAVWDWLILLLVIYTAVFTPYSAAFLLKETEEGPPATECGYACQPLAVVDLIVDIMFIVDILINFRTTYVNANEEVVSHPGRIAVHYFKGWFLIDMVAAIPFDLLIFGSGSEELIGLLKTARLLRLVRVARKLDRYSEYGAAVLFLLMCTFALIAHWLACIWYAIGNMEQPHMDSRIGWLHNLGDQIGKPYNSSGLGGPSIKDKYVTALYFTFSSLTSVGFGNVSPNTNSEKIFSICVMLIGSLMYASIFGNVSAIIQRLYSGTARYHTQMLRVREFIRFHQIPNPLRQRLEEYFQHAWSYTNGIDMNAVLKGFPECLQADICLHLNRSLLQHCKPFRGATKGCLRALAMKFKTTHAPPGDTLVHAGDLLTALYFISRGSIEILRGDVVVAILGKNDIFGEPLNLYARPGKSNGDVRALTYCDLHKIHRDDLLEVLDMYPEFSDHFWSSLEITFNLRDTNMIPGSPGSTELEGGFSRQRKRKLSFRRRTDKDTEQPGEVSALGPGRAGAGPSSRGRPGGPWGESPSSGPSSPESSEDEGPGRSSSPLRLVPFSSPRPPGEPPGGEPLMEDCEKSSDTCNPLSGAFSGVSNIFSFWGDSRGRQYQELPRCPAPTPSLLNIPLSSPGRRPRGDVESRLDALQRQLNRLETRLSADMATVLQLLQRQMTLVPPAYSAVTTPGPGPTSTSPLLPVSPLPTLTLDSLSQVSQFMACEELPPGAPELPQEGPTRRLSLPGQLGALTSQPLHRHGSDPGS

SARS-CoV-2 [15] = assay: Potency index, ratio of Arbidol IC50 to test compound IC50 for antiviral activity against SARS CoV-2 Wuhan infected in African green monkey Vero E6 cells assessed as inhibition of viral replication pretreated for 15 mins followed by compound removal and induction of viral infection for 1 hr and subsequent removal of inoculum and further addition of media containing compound measured after 24 hrs …; type: functional, Severe acute respiratory syndrome coronavirus 2; settings: time 24.25 hrs
[16] = Stability in mouse plasma assessed as compound remaining at 2 uM measured after 2 hrs by LC-MS/MS analysis; type: ADME, cell-free; settings: read-out: Stability
[17] = Stability in human plasma assessed as compound remaining at 2 uM measured after 2 hrs by LC-MS/MS analysis; type: ADME, cell-free; settings: read-out: Stability
SARS-CoV-2 [18] = assay: as §2, with “virus inactivation at 1 uM” for “inhibition of viral replication”, “48” for “24”, “RT-qPCR analysis relative to control” for “cell-based ELISA”; type: functional, Severe acute respiratory syndrome coronavirus 2; settings: time 48.25 hrs
SARS-CoV-2 [19] = assay: as §2, with “virus inactivation at 5 uM” for “inhibition of viral replication”, “48” for “24”, “RT-qPCR analysis relative to control” for “cell-based ELISA”; type: functional, Severe acute respiratory syndrome coronavirus 2; settings: time 48.25 hrs
[20] = as §1; type: toxicity, cell-based, Vero C1008; settings: chlorocebus sabaeus, Vero E6 cells, read-out: Activity
SARS-CoV-2 [21] = assay: as §2, with “virus inactivation at 10 uM” for “inhibition of viral replication”, “48” for “24”, “RT-qPCR analysis relative to control” for “cell-based ELISA”; type: functional, Severe acute respiratory syndrome coronavirus 2; settings: time 48.25 hrs
Vero C1008 [22] = assay: Cytotoxicity against African green monkey Vero E6 cells assessed as cell viability at 1 uM incubated for 48 hrs by MTT assay; type: toxicity, cell-based; settings: chlorocebus sabaeus, vero c1008, 48 h

Compound	remaining at 1 h, 2 µM [1]	Activity (Vero C1008 [2])	logD at 3 h [3]	IC50 (SARS-CoV-2 [4])	half-life at 100 µM [5]	half-life at 2 µM [6]	microsomal CLint at 100 µM [7]	microsomal CLint at 100 µM [8]	half-life at 100 µM [9]	half-life at 2 µM [10]	remaining at 1 h, 100 µM [11]	remaining at 1 h, 100 µM [12]	remaining at 1 h, 2 µM [13]	IC50 [14]	Ratio IC50 (SARS-CoV-2 [15])	remaining at 2 h, 2 µM [16]	remaining at 2 h, 2 µM [17]	Activity (SARS-CoV-2 [18])	Activity (SARS-CoV-2 [19])	other results
CN(C)CCCCNC(=O)c1c(CSc2ccc(F)cc2)n(C)c2cc(Br)c(O)cc12	70.6%	Non-toxic	1.91	1800 nM	0.448 h	< 2 h	25.8 µL/min/mg	22.2 µL/min/mg	0.52 h	1 h	28%	21%	41.6%	9850 nM	–	–	–	–	–	–
Cc1ccc(Cn2c(CSc3c(C)cc(C)cc3C)c(C(=O)NC3CCN(Cc4ccccc4)CC3)c3cc(O)c(Br)cc32)cc1	–	Non-toxic	–	1500 nM	–	–	–	–	–	–	–	–	–	–	~13	–	–	–	–	–
CCOC(=O)c1c(CSc2ccc(C)cc2C)n(Cc2ccc(C)cc2)c2cc(Br)c(O)c(CN(C)C)c12	–	Non-toxic	3.98	1500 nM	0.0846 h	> 2 h	273 µL/min/mg	512 µL/min/mg	0.0452 h	> 2 h	0.31%	0.314%	–	6030 nM	–	88.4%	115%	<99.9%	<99.9%	–
CCOC(=O)c1c(CSc2ccc(C)cc2C)n(C)c2cc(Br)c(O)cc12	–	–	–	–	–	–	–	–	–	–	–	–	–	–	–	–	–	>95%	–	viability at 48 h, 5 µM [20]: 85%; Activity (SARS-CoV-2 [21]): >99.9%; inhibition (SARS-CoV-2 [4]; Severe acute respiratory syndrome coronavirus 2, time 24.25 hrs): inactive; Activity (Vero C1008 [22]): Non-toxic
CCOC(=O)c1c(CSc2ccc(C)cc2C)n(Cc2cccc3ccccc23)c2cc(Br)c(O)cc12	–	Non-toxic	3.76	240 nM	> 2 h	> 4 h	> 14.4 µL/min/mg	20.2 µL/min/mg	> 2 h	3 h	96.7%	75.5%	–	> 30000 nM	–	70.3%	69.1%	–	<90%	–
Cc1ccc(Cn2c(CSc3c(C)cc(C)cc3C)c(C(=O)NC3CCN(C(C)C)CC3)c3cc(O)c(Br)cc32)cc1	57.6%	Non-toxic	3.95	750 nM	2 h	> 4 h	9.64 µL/min/mg	15.5 µL/min/mg	1.5 h	> 4 h	59.4%	80.1%	74.8%	10600 nM	~13	–	–	–	–	–
